Source: patent US20160250177A1, “MODIFIED DOCETAXEL LIPOSOME FORMULATIONS AND USES THEREOF” (MALLINCKRODT LLC, priority 2015, published 2016)
Where two headings read alike, the source gives them in different places.

Legend:
clinical = conditions: human, in vivo
[1] = human, in vivo; for AUC/Dose / CL / Cmax/Dose / Vss: iv

CC(=O)O[C@@]12CO[C@@H]1C[C@H](O)[C@@]1(C)C(=O)[C@H](O)C3=C(C)[C@@H](OC(=O)[C@H](OC(=O)CN4CCN(C)CC4)[C@@H](NC(=O)OC(C)(C)C)c4ccccc4)C[C@@](O)([C@@H](OC(=O)c4ccccc4)[C@H]21)C3(C)C [TD-1]
half-life (clinical; average t1/2 for TD-1): ~51 h
AUC(0-inf) (clinical; iv, 3 mg/m2): 103 µg·h/mL
Cmax (clinical; iv, 3 mg/m2): 1.52 µg/mL
half-life (clinical; iv, 3 mg/m2, t1/2): 48.8 h
AUC(0-inf) (clinical; iv, 6 mg/m2): 252 µg·h/mL
Cmax (clinical; iv, 6 mg/m2): 3.15 µg/mL
half-life (clinical; iv, 6 mg/m2, t1/2): 57.6 h
AUC(0-inf) (clinical; iv, 12 mg/m2): 457 µg·h/mL
Cmax (clinical; iv, 12 mg/m2): 6.48 µg/mL
half-life (clinical; iv, 12 mg/m2, t1/2): 44 h
AUC(0-inf) (clinical; iv, 24 mg/m2): 955 µg·h/mL
Cmax (clinical; iv, 24 mg/m2): 13.7 µg/mL
half-life (clinical; iv, 24 mg/m2, t1/2): 43.8 h
AUC(0-inf) (clinical; iv, 48 mg/m2): 2660 µg·h/mL
Cmax (clinical; iv, 48 mg/m2): 30.7 µg/mL
half-life (clinical; iv, 48 mg/m2, t1/2): 59.3 h
AUC(0-inf) (clinical; iv, 80 mg/m2): 2390 µg·h/mL
Cmax (clinical; iv, 80 mg/m2): 43.4 µg/mL
half-life (clinical; iv, 80 mg/m2, t1/2): 26.7 h
AUC(0-inf) (clinical; iv, 120 mg/m2): 6280 µg·h/mL
Cmax (clinical; iv, 120 mg/m2): 68.8 µg/mL
half-life (clinical; iv, 120 mg/m2, t1/2): 48.3 h
AUC(0-inf) (clinical; iv, 160 mg/m2): 9440 µg·h/mL
Cmax (clinical; iv, 160 mg/m2): 98.5 µg/mL
half-life (clinical; iv, 160 mg/m2, t1/2): 66.1 h
AUC(0-inf) (clinical; iv, 190 mg/m2): 9810 µg·h/mL
Cmax (clinical; iv, 190 mg/m2): 143 µg/mL
half-life (clinical; iv, 190 mg/m2, t1/2): 53 h
AUC(0-inf) (clinical; iv, 225 mg/m2): 13200 µg·h/mL
Cmax (clinical; iv, 225 mg/m2): 149 µg/mL
half-life (clinical; iv, 225 mg/m2, t1/2): 54.5 h
AUC(0-inf) (clinical; iv, 270 mg/m2): 8370 µg·h/mL
Cmax (clinical; iv, 270 mg/m2): 150 µg/mL
half-life (clinical; iv, 270 mg/m2, t1/2): 35.6 h
AUC(0-inf) (clinical; iv, 320 mg/m2): 13000 µg·h/mL
Cmax (clinical; iv, 320 mg/m2): 205 µg/mL
half-life (clinical; iv, 320 mg/m2, t1/2): 43.7 h
AUC(0-inf) (clinical; iv, 380 mg/m2): 34100 µg·h/mL
Cmax (clinical; iv, 380 mg/m2): 310 µg/mL
half-life (clinical; iv, 380 mg/m2, t1/2): 84.4 h
half-life (clinical; t1/2 (mean)): ~50 h
CL (mean) [1]: 0.025 L/h/m^2
Cmax and AUC with respect to dose [1]: remained linear with respect to dose
Vss (mean) [1]: 1.422 L/m^2
dose proportionality for Cmax and AUCinf [1]: demonstrate dose proportionality
AUC/Dose ([1]; 12 mg/m2): 38106 m^2 · ng · h/ml/mg
CL ([1]; 12 mg/m2): 0.0283 l/h/m^2
Cmax/Dose ([1]; 12 mg/m2): 539.6 m^2 · ng/ml/mg
Vss ([1]; 12 mg/m2): 1.46 l/m^2
AUC/Dose ([1]; 48 mg/m2): 55469 m^2 · ng · h/ml/mg
CL ([1]; 48 mg/m2): 0.0186 l/h/m^2
Cmax/Dose ([1]; 48 mg/m2): 640.3 m^2 · ng/ml/mg
Vss ([1]; 48 mg/m2): 1.40 l/m^2
AUC/Dose ([1]; 120 mg/m2): 52326 m^2 · ng · h/ml/mg
CL ([1]; 120 mg/m2): 0.0202 l/h/m^2
Cmax/Dose ([1]; 120 mg/m2): 573.6 m^2 · ng/ml/mg
Vss ([1]; 120 mg/m2): 0.090 l/m^2
AUC/Dose ([1]; 225 mg/m2): 58571 m^2 · ng · h/ml/mg
CL ([1]; 225 mg/m2): 0.0184 l/h/m^2
Cmax/Dose ([1]; 225 mg/m2): 662.2 m^2 · ng/ml/mg
Vss ([1]; 225 mg/m2): 1.08 l/m^2
AUC/Dose ([1]; 320 mg/m2): 405478 m^2 · ng · h/ml/mg
CL ([1]; 320 mg/m2): 0.0260 l/h/m^2
Cmax/Dose ([1]; 320 mg/m2): 640.6 m^2 · ng/ml/mg
Vss ([1]; 320 mg/m2): 1.58 l/m^2

distearoyl-phosphatidylethanolamine-N-[methoxy(polyethene glycol)-2000] [DSPE(PEG-2000)]
CL (mean) [1]: 0.025 L/h/m^2
Vss (mean) [1]: 1.409 L/m^2
dose proportionality for Cmax and AUCinf [1]: demonstrate dose proportionality
